According to patent publication US20100068174A1, “COMBINATION WITH BIS (THIOHYDRAZIDE AMIDES) FOR TREATING CANCER” (Synta Pharmaceuticals Corp., priority 2006, published 2010):

Assays:
[1] = test system: Stage IV metastatic melanoma patients; conditions: RECIST, Efficacy Sample
Procedure: Patients were treated until progression of the disease. […] The tumor assessments were performed at baseline, Cycle 2, and every other Cycle thereafter.

in vivo = conditions: female, SW, mouse, iv
Procedure: Tissue samples were prepared by homogenizing a weighed tissue sample in phosphor-buffered saline (PBS, ×1)+1% DTT (×1)+CH3CN (0.1% HCOOH) (×3)), centrifuged at 10,000 rpm×5 min; 150 μL supernatant+90 μL H2O. 100 μL prepared samples were subjected to HPLC, using 5-95% CH3CN (0.1% HCOOH) as the eluent. The running time was 15 min.

Kp at 30 min (in vivo) | concentration at 30 min (in vivo) | Compound | CR + PR (95% CI) [1]
 |  | CC(=O)O[C@H]1C(=O)[C@@]2(C)[C@H]([C@H](OC(=O)c3ccccc3)[C@]3(O)C[C@H](OC(=O)[C@H](O)[C@@H](NC(=O)c4ccccc4)c4ccccc4)C(C)=C1C3(C)C)[C@]1(OC(C)=O)CO[C@@H]1C[C@@H]2O [Paclitaxel] | 3.7% (0.1%,
~1.64 | ~51 µM | CN(NC(=O)CC(=O)NN(C)C(=S)C1CC1)C(=S)C1CC1 [Compound (18)] | 
